The structures appear in SMILES notation. Several values for one entry are separate records, joined by “and”; a condition that tells them apart may be missing. Equal entries are not always repeated.

The text below walks through data of the Kinase Knowledgebase extract (Sharma et al. 2016).

Sequence of MAPK14 (human) (Q16539 whole entry, looked up): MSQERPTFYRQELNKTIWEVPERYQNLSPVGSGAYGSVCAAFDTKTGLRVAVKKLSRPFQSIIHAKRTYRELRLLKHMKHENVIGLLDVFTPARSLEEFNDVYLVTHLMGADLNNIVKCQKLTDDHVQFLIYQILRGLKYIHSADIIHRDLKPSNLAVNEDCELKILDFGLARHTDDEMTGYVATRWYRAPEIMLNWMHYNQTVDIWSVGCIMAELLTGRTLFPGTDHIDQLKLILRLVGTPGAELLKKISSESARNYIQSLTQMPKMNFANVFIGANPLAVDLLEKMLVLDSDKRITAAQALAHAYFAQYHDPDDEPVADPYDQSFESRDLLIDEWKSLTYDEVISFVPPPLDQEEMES

One experiment concerns the target MAPK14 (human) (UniProt Q16539). Kind of experiment: Inhibition of LPS Stimulated TNF Production by U937 Cells.
Conditions: not given
Broadly, the IC50 is the point on the concentration scale where inhibition reaches its midpoint. Low readings indicate greater potency in that assay, high ones weaker potency in that assay. With `O=S(=O)(NCCCc1[nH]nc(-c2ccc(F)cc2)c1-c1ccncc1)c1ccccc1Br`, the IC50 amounted to 480 nM. In other words, the sub-micromolar range.
The same measure, in the same setting: with `C[C@H](NC(=O)N1CCCC1)c1[nH]nc(-c2ccc(F)cc2)c1-c1ccncc1` the figure was 2170 nM; with `OCCn1ncc(-c2ccnc(NCc3ccc(F)cc3)c2)c1-c1ccc(F)cc1`, 800 nM and 6020 nM; with `C[C@@H](NC(=O)c1ccccc1I)c1[nH]nc(-c2ccc(F)cc2)c1-c1ccncc1`, 660 nM.
The same measure, in the same setting: with `CC(=O)O[C@@H](C)C(=O)NCc1[nH]nc(-c2ccc(F)cc2)c1-c1ccncc1` the figure was 6510 nM.
On the same count and under the same terms, with `O=C(NCc1[nH]nc(-c2ccc(F)cc2)c1-c1ccncc1)[C@H]1CCCN1` the figure was more than 1000 nM; with `Cc1[nH]nc(-c2ccc(Br)cc2)c1-c1ccncc1`, 244 nM.
The molecule `COc1cccc(CC(=O)N2CCC(c3[nH]nc(-c4ccc(F)cc4)c3-c3ccncc3)CC2)c1` gave a concentration for half-maximal inhibition (IC50) of 770 nM.
On the same count and under the same terms, the result for `Cc1n[nH]c(-c2cccc(Cl)c2)c1-c1ccncc1` reads 74 nM; that for `CCNC(=O)N1CCC(c2[nH]nc(-c3ccc(F)cc3)c2-c2ccncc2)CC1`, 730 nM.
Same read-out and setting: the result for `CN(C(=O)N[C@@H](Cc1ccccc1)c1[nH]nc(-c2ccc(F)cc2)c1-c1ccncc1)c1ccccc1` reads less than 1000 nM.
`Clc1ccc(-c2n[nH]cc2-c2ccncc2)cc1Cl`: the 50% inhibitory concentration (IC50) amounted to 170 nM. In other words, the sub-micromolar range.
Still for that read-out and setting: with `Fc1ccc(CNc2cc(-c3cn(CCN4CCOCC4)nc3-c3ccc(F)cc3)ccn2)cc1` the figure was 180 nM and 450 nM; with `CC(C)(C)C(=O)N[C@H](Cc1ccccc1)c1[nH]nc(-c2ccc(F)cc2)c1-c1ccncc1`, more than 1000 nM; with `COc1ccc(CC(=O)NCc2[nH]nc(-c3ccc(F)cc3)c2-c2ccncc2)cc1`, 8240 nM.
As for `O=S(=O)(c1ccc(F)c(F)c1)N1CCC(c2[nH]nc(-c3ccc(F)cc3)c2-c2ccncc2)CC1`, the 50% inhibitory concentration (IC50) is more than 1000 nM.
Same read-out and setting: the result for `C[C@H](NC(=O)NCc1ccccc1)c1[nH]nc(-c2ccc(F)cc2)c1-c1ccncc1` reads 840 nM.
On the same count and under the same terms, the result for `O=S(=O)(NCc1[nH]nc(-c2ccc(F)cc2)c1-c1ccncc1)c1ccc(F)cc1F` reads 2170 nM.
On the same count and under the same terms, with `OCCn1cc(-c2ccnc(F)c2)c(-c2ccc(F)cc2)n1` the figure was 2670 nM; with `O=C(NCc1[nH]nc(-c2ccc(F)cc2)c1-c1ccncc1)c1ccc(F)c(F)c1F`, 3270 nM.
In turn, `COc1ccccc1C(=O)NCc1[nH]nc(-c2ccc(F)cc2)c1-c1ccncc1` yielded a 50% inhibitory concentration (IC50) of 4470 nM.
Same read-out and setting: with `CCS(=O)(=O)N1CCC(c2[nH]nc(-c3ccc(F)cc3)c2-c2ccncc2)CC1` the figure was 250 nM; with `COC(=O)CNc1n[nH]c(-c2ccc(F)cc2)c1-c1ccncc1`, more than 10000 nM; with `Cc1c(-c2ccncc2)c(-c2ccc(F)cc2)nn1CC(=O)NCCc1ccc(Oc2ccccc2)cc1`, 780 nM.

Still in this experiment, the particulars now being: concentration not given here.
One may read the inhibition as the drop in the measured response relative to a control, in per cent. Turning to `Cc1cc(C)c(C(=O)N[C@@H](C)c2[nH]nc(-c3ccc(F)cc3)c2-c2ccncc2)c(C)c1`, the inhibition is 39%.
The same measure, in the same setting: the result for `C[C@H](NC(=O)N[C@H](C)c1[nH]nc(-c2ccc(F)cc2)c1-c1ccncc1)c1ccccc1` reads 25%; that for `C[C@@H](NS(=O)(=O)c1ccc(S(=O)(=O)c2ccccc2)s1)c1[nH]nc(-c2ccc(F)cc2)c1-c1ccncc1`, 88%.
Same read-out and setting: with `C[C@H](NC(=O)c1ccc(Cl)cc1)c1[nH]nc(-c2ccc(F)cc2)c1-c1ccncc1` the figure was 32%.
Still for that read-out and setting: the result for `CCCCCCCCS(=O)(=O)NCc1[nH]nc(-c2ccc(F)cc2)c1-c1ccncc1` reads 12%.
Take `O=C(NCc1[nH]nc(-c2ccc(F)cc2)c1-c1ccncc1)c1cccc(Cl)c1Cl`: the inhibition was 33%.
`O=C(NCc1[nH]nc(-c2ccc(F)cc2)c1-c1ccncc1)c1ccc(C(F)(F)F)cc1` had an inhibition of 24%.
On the same count and under the same terms, with `O=C(NCCCc1[nH]nc(-c2ccc(F)cc2)c1-c1ccncc1)NCc1ccccn1` the figure was 10%; with `C[C@H](NC(=O)c1c(F)cccc1F)c1[nH]nc(-c2ccc(F)cc2)c1-c1ccncc1`, 56%.
On the same count and under the same terms, the result for `O=S(=O)(NCc1[nH]nc(-c2ccc(F)cc2)c1-c1ccncc1)c1ccc(C(F)(F)F)cc1` reads 60%; that for `O=C(NCc1[nH]nc(-c2ccc(F)cc2)c1-c1ccncc1)[C@@H]1CCCN1`, 22%; that for `C[C@@H](NS(=O)(=O)c1ccc(C#N)cc1)c1[nH]nc(-c2ccc(F)cc2)c1-c1ccncc1`, 90%.
Still for that read-out and setting: the result for `CNC(=O)NCc1[nH]nc(-c2ccc(F)cc2)c1-c1ccncc1` reads 30%; that for `Cc1cc(C)c(NC(=O)NCc2[nH]nc(-c3ccc(F)cc3)c2-c2ccncc2)c(C)c1`, 25%; that for `COc1ccc(OC)c(S(=O)(=O)NCCc2[nH]nc(-c3ccc(F)cc3)c2-c2ccncc2)c1`, 29%.
In turn, `COc1ccc(C)cc1S(=O)(=O)N[C@H](C)c1[nH]nc(-c2ccc(F)cc2)c1-c1ccncc1` displayed an inhibition of 92%.
Still for that read-out and setting: with `C[C@@H](NS(=O)(=O)c1ccccc1C(F)(F)F)c1[nH]nc(-c2ccc(F)cc2)c1-c1ccncc1` the figure was 70%; with `COc1ccc(OC)c(S(=O)(=O)N2CCC(c3[nH]nc(-c4ccc(F)cc4)c3-c3ccncc3)CC2)c1`, 24%; with `C[C@H](NS(=O)(=O)c1ccc(Br)cc1)c1[nH]nc(-c2ccc(F)cc2)c1-c1ccncc1`, 87%.
The molecule `C[C@H](NC(=O)c1ccc(F)cc1F)c1[nH]nc(-c2ccc(F)cc2)c1-c1ccncc1` gave an inhibition of 45%.
Same read-out and setting: with `O=C(NCc1[nH]nc(-c2ccc(F)cc2)c1-c1ccncc1)[C@H]1CCCN1C(=O)OCC1c2ccccc2-c2ccccc21` the figure was 14%; with `C[C@@H](NC(=O)c1cc(F)cc(F)c1)c1[nH]nc(-c2ccc(F)cc2)c1-c1ccncc1`, 48%.
Same read-out and setting: with `Cc1noc(C)c1C(=O)N[C@@H](C)c1[nH]nc(-c2ccc(F)cc2)c1-c1ccncc1` the figure was 32%; with `N#Cc1ccc(S(=O)(=O)N2CCC(c3[nH]nc(-c4ccc(F)cc4)c3-c3ccncc3)CC2)cc1`, 24%; with `C[C@H](NS(=O)(=O)c1ccc(CNC(=O)c2ccccc2)s1)c1[nH]nc(-c2ccc(F)cc2)c1-c1ccncc1`, 83%.
Still for that read-out and setting: the result for `O=C(NCc1[nH]nc(-c2ccc(F)cc2)c1-c1ccncc1)c1cccnc1` reads 16%.
`C[C@@H](NS(=O)(=O)c1ccc(-c2ccccn2)s1)c1[nH]nc(-c2ccc(F)cc2)c1-c1ccncc1` had an inhibition of 68%.
Same read-out and setting: the result for `C[C@@H](NS(=O)(=O)c1cn(C)cn1)c1[nH]nc(-c2ccc(F)cc2)c1-c1ccncc1` reads 80%.
On the same count and under the same terms, with `CCCNC(=O)Cn1nc(-c2ccc(F)cc2)c(-c2ccncc2)c1C` the figure was 31%.
On the same count and under the same terms, with `CCc1ccc(S(=O)(=O)N[C@@H](C)c2[nH]nc(-c3ccc(F)cc3)c2-c2ccncc2)cc1` the figure was 92%; with `Cc1c(Cl)cccc1S(=O)(=O)NCCc1[nH]nc(-c2ccc(F)cc2)c1-c1ccncc1`, 29%.
The molecule `CCN(CC)C(=O)N[C@H](C)c1[nH]nc(-c2ccc(F)cc2)c1-c1ccncc1` displayed an inhibition of 49%.
Same read-out and setting: the result for `C[C@H](NS(=O)(=O)c1cc(Cl)c(Cl)s1)c1[nH]nc(-c2ccc(F)cc2)c1-c1ccncc1` reads 79%; that for `C[C@@H](NS(=O)(=O)c1cccc(C(F)(F)F)c1)c1[nH]nc(-c2ccc(F)cc2)c1-c1ccncc1`, 97%.
In turn, `C[C@@H](NS(=O)(=O)c1ccc(Br)cc1)c1[nH]nc(-c2ccc(F)cc2)c1-c1ccncc1` returned an inhibition of 89%.
The same measure, in the same setting: with `O=C(NCCc1[nH]nc(-c2ccc(F)cc2)c1-c1ccncc1)c1cccc(Cl)c1Cl` the figure was 11%; with `COc1cccc(C(=O)N[C@H](Cc2ccccc2)c2[nH]nc(-c3ccc(F)cc3)c2-c2ccncc2)c1`, 38%.
Still for that read-out and setting: with `C[C@H](NS(=O)(=O)c1cccc2ccccc12)c1[nH]nc(-c2ccc(F)cc2)c1-c1ccncc1` the figure was 80%.
Molecule `C[C@H](NS(=O)(=O)c1ccc(-c2ccccc2)cc1)c1[nH]nc(-c2ccc(F)cc2)c1-c1ccncc1` returned an inhibition of 91%.
The same measure, in the same setting: with `O=C(NCc1[nH]nc(-c2ccc(F)cc2)c1-c1ccncc1)c1ccco1` the figure was 8%; with `O=S(=O)(NCCc1[nH]nc(-c2ccc(F)cc2)c1-c1ccncc1)c1cccc(Cl)c1Cl`, 21%; with `O=S(=O)(c1ccc(Cl)cc1)N1CCC(c2[nH]nc(-c3ccc(F)cc3)c2-c2ccncc2)CC1`, 25%.
Still for that read-out and setting: with `C[C@H](NS(=O)(=O)c1cccc2c(N(C)C)cccc12)c1[nH]nc(-c2ccc(F)cc2)c1-c1ccncc1` the figure was 68%; with `CS(=O)(=O)c1ccccc1S(=O)(=O)NCc1[nH]nc(-c2ccc(F)cc2)c1-c1ccncc1`, 23%; with `C[C@@H](NS(=O)(=O)c1ccc(F)cc1Cl)c1[nH]nc(-c2ccc(F)cc2)c1-c1ccncc1`, 81%.
The same measure, in the same setting: the result for `C[C@@H](NC(=O)c1ccc(C(F)(F)F)cc1F)c1[nH]nc(-c2ccc(F)cc2)c1-c1ccncc1` reads 48%; that for `CC(=O)O[C@@H](C)C(=O)N[C@H](C)c1[nH]nc(-c2ccc(F)cc2)c1-c1ccncc1`, 27%.
With `C[C@H](NC(=O)[C@H]1CCCN1)c1[nH]nc(-c2ccc(F)cc2)c1-c1ccncc1`, the inhibition came out at 20%.
Still for that read-out and setting: the result for `CNC(=O)CC[C@H](NC(=O)C1CC1)c1[nH]nc(-c2ccc(F)cc2)c1-c1ccncc1` reads 28%; that for `C[C@@H](NC(=O)c1ccccc1)c1[nH]nc(-c2ccc(F)cc2)c1-c1ccncc1`, 19%; that for `N#Cc1cccc(C(=O)NCCc2[nH]nc(-c3ccc(F)cc3)c2-c2ccncc2)c1`, 7%.
Same read-out and setting: the result for `C[C@H](NC(=O)c1c(F)cccc1C(F)(F)F)c1[nH]nc(-c2ccc(F)cc2)c1-c1ccncc1` reads 59%.
`O=S(=O)(NCc1[nH]nc(-c2ccc(F)cc2)c1-c1ccncc1)c1cccc(Cl)c1Cl` returned an inhibition of 30%.
For `C[C@H](NS(=O)(=O)c1cccc(Cl)c1Cl)c1[nH]nc(-c2ccc(F)cc2)c1-c1ccncc1`, the inhibition came to 78%.
Still for that read-out and setting: the result for `C[C@H](NC(=O)N[C@H](C)c1ccccc1)c1[nH]nc(-c2ccc(F)cc2)c1-c1ccncc1` reads 41%; that for `O=S(=O)(NCCc1[nH]nc(-c2ccc(F)cc2)c1-c1ccncc1)c1cccc2cnccc12`, 91%.
